± gives the expanded uncertainty stated by the source.
What was measured:
[1] = 100 kPa, Liquid; for speed of sound: Frequency=3 MHz, Sing-around technique in a fixed-path interferometer; for mass density: Vibrating tube method
[2] = refractive index (Na D-line) (dimensionless); details: 100 kPa, Liquid, Standard Abbe refractometry
[3] = xn = mol fraction of the nth substance listed; details: 100 kPa, Liquid, x1 = 1; for speed of sound: Frequency=3 MHz, Sing-around technique in a fixed-path interferometer; for mass density: Vibrating tube method
[4] = refractive index (Na D-line) (dimensionless); xn = mol fraction of the nth substance listed; details: 100 kPa, Liquid, Standard Abbe refractometry, x1 = 1

speed of sound ([1]; 298.15 K)	mass density ([1]; 298.15 K)	speed of sound ([1]; 303.15 K)	mass density ([1]; 303.15 K)	speed of sound ([1]; 308.15 K)	mass density ([1]; 308.15 K)	speed of sound ([1]; 313.15 K)	mass density ([1]; 313.15 K)	speed of sound ([1]; 318.15 K)	mass density ([1]; 318.15 K)	speed of sound ([1]; 323.15 K)	mass density ([1]; 323.15 K)	refractive index ([2]; 298.15 K)	refractive index ([2]; 303.15 K)	refractive index ([2]; 308.15 K)	refractive index ([2]; 313.15 K)	refractive index ([2]; 318.15 K)	refractive index ([2]; 323.15 K)	further results	Structure (SMILES)
1565.1 ± 1.3 m/s	1198.78 ± 0.39 kg/m3	1553.2 ± 1.2 m/s	1195.18 ± 0.39 kg/m3	1541.3 ± 1.2 m/s	1191.6 ± 0.39 kg/m3	1529.7 ± 1.2 m/s	1188.04 ± 0.38 kg/m3	1518.2 ± 1.2 m/s	1184.5 ± 0.38 kg/m3	1506.8 ± 1.2 m/s	1180.98 ± 0.38 kg/m3	1.42058 ± 0.00087	1.41913 ± 0.00087	1.41764 ± 0.00087	1.41621 ± 0.00087	1.41472 ± 0.00087	1.4133 ± 0.00087		CCCCn1cc[n+](C)c1.F[B-](F)(F)F [1-butyl-3-methylimidazolium tetrafluoroborate]
																		speed of sound ([3]; 298.15 K): 1565.1 ± 1.3 m/s; mass density ([3]; 298.15 K): 1198.78 ± 0.39 kg/m3; speed of sound ([3]; 303.15 K): 1553.2 ± 1.2 m/s; mass density ([3]; 303.15 K): 1195.18 ± 0.39 kg/m3; speed of sound ([3]; 308.15 K): 1541.3 ± 1.2 m/s; mass density ([3]; 308.15 K): 1191.6 ± 0.39 kg/m3; speed of sound ([3]; 313.15 K): 1529.7 ± 1.2 m/s; mass density ([3]; 313.15 K): 1188.04 ± 0.38 kg/m3; speed of sound ([3]; 318.15 K): 1518.2 ± 1.2 m/s; mass density ([3]; 318.15 K): 1184.5 ± 0.38 kg/m3; speed of sound ([3]; 323.15 K): 1506.8 ± 1.2 m/s; mass density ([3]; 323.15 K): 1180.98 ± 0.38 kg/m3; refractive index ([4]; 298.15 K): 1.42058 ± 0.00087; refractive index ([4]; 303.15 K): 1.41913 ± 0.00087; refractive index ([4]; 308.15 K): 1.41764 ± 0.00087; refractive index ([4]; 313.15 K): 1.41621 ± 0.00087; refractive index ([4]; 318.15 K): 1.41472 ± 0.00087; refractive index ([4]; 323.15 K): 1.4133 ± 0.00087	CCCCn1cc[n+](C)c1.F[B-](F)(F)F [1-butyl-3-methylimidazolium tetrafluoroborate] + C=CN1CCCC1=O
1521.5 ± 3.1 m/s	1039.36 ± 2 kg/m3	1502.5 ± 3.1 m/s	1034.95 ± 2 kg/m3	1483.7 ± 3.1 m/s	1030.55 ± 2 kg/m3	1465 ± 3.1 m/s	1026.14 ± 2 kg/m3	1446.5 ± 3.1 m/s	1021.73 ± 2 kg/m3	1428.1 ± 3.1 m/s	1017.33 ± 1.9 kg/m3	1.51119 ± 0.001	1.50886 ± 0.001	1.5065 ± 0.001	1.50415 ± 0.001	1.50181 ± 0.001	1.49948 ± 0.001		C=CN1CCCC1=O [N-vinylpyrrolidone]

Reference: the NIST ThermoML archive (doi:10.1021/je500936y)
